From US4255519A, “Glycerol oxidase and process for the production thereof” (priority 1978, dated 1981)
Like-named read-outs stand apart in the source and are kept apart here.

Legend:
glycerol oxidase II [1] = assay: Substrate specificity, relative activity by 4-AA method; type: biochemical, Penicillium sp. KY 868; conditions: for Relative activity: substrate equimolar to glycerol, activity on glycerol defined as 100, 4-AA method
Protocol: The relative activity is measured using other substrates in equimolar amounts to that of glycerol in the procedure for measuring the activity according to 4-AA method.
The relative activities on other substrates are given in Table 3, the activity on glycerol being defined as 100.
The enzyme activity is expressed by "unit." A "unit" of the enzyme activity is defined as that amount of enzyme which will decompose 1 μ mole of glycerol at 37° C. in 1 minute in the presence of oxygen. The determination of the enzyme activity is carried out as follows: glycerol is reacted with glycerol oxidase II with stirring to form hydrogen peroxide, and 4-aminoantipyrine and phenol are reacted with the resulting hydrogen peroxide in the presence of peroxidase to derive quinoneimine pigment. The optical density in the visible portion of the resulting quinoneimine pigment is measured to determine the amount of generated hydrogen peroxide, whereby the enzyme activity is determined (which will be hereinafter referred to as "4-AA method").
The reagents (1)-(6) are mixed in a test tube, and then shaken at 37° C. for 5 minutes. Then, enzyme solution is added thereto, and thus obtained mixture is made up to 3 ml with TES buffer solution. Reaction is carried out at 37° C. for 10 minutes with shaking. On the other hand, similar procedure is repeated using water in place of the test solution as a reference. The optical density of the reaction solution at 500 nm is measured, and a difference from the control is determined as ΔOD (optical density).

glycerol oxidase II [2] = assay: Substrate affinity: Michaelis constant against glycerol; type: biochemical, Penicillium sp. KY 868; conditions: glycerol oxidase II of the genus Penicillium
From the text: *Determination of Michaelis constant is described in the following reference. H. Lineweaver and D. Burk, J. Amer. Chem. Soc., 56, 658 (1934).

glycerol oxidase I [3] = conditions: glycerol oxidase I of Neurospora crassa (U.S. application Ser. No. 897,695); cited from earlier work
glycerol oxidase I [4] = conditions: glycerol oxidase I of Aspergillus japonicus (U.S. application Ser. No. 897,695); cited from earlier work
glycerol oxidase II [5] = assay: Inhibitors of enzyme: activity with 1 mM inhibitor, oxygen consumption rate by Warburg's manometer; type: biochemical, Penicillium sp. KY 868; conditions: activity with no inhibitor defined as 100, from oxygen consumption rate
Protocol: Enzymes activities obtained by adding 1 mM of various inhibitors are shown in Table 1, the activity of the enzyme with no addition of the inhibitor being defined as 100. The activities are calculated from consumption rate of oxygen used in reaction measured by Warburg's manometer.

| Structure (SMILES) | Relative activity (glycerol oxidase II [1]) | Relative rate (%) (glycerol oxidase II [5]) | further results |
| --- | --- | --- | --- |
| OCCCO [1,3-Propanediol] | 23 | – | – |
| CC(C)CO [iso-Butyl alcohol] | 14 | – | – |
| CC(O)CCO (stereo not shown) [1,3-Butanediol] | 11 | – | – |
| OCC(O)CO [Glycerol] | 100 | – | Km (glycerol oxidase II [2]): 8 mM; Km (glycerol oxidase I [3]): 19 mM; Substrate specificity (in words) (glycerol oxidase II [1]): reacts specifically; Km (glycerol oxidase I [4]): 18.5 mM |
| CC(C)O [iso-Propyl alcohol] | 23 | – | – |
| CCC(C)O (stereo not shown) [sec-Butyl alcohol] | 9 | – | – |
| O=[N+]([O-])[O-].[Ag+] [AgNO3] | – | 0% | – |
| CCCO [n-Propyl alcohol] | 11 | – | – |
| [Cl-].[Cl-].[Zn+2] [ZnCl2] | – | 84.3% | – |
| O=C(O)c1cc[c]([Hg][Cl])cc1 [p-Chloromercuri benzoate] | – | 81.4% | – |
| CCO [Ethanol] | 11 | – | – |
| O=S(=O)([O-])[O-].[Fe+2] [FeSO4] | – | 0% | – |
| CC(O)C(C)O (stereo not shown) [2,3-Butanediol] | 16 | – | – |
| CC(=O)[O-].CC(=O)[O-].[Pb+2] [Pb(CH3 COO)2] | – | 26.3% | – |
| OCCCCO [1,4-Butanediol] | 11 | – | – |
| c1cnc2c(c1)ccc1cccnc12 [o-Phenanthroline] | – | 65.5% | – |
| Cc1ccc2ccc3ccc(C)nc3c2n1 [Neocuproine] | – | 80.3% | – |
| CC(O)CO (stereo not shown) [1,2-Propanediol] | 11 | – | – |
| CCN(CC)C(=S)S [Diethyl dithiocarbamate] | – | 0% | – |
| O=C(O)CN(CCN(CC(=O)O)CC(=O)O)CC(=O)O [EDTA] | – | 82.8% | – |
| c1ccc(-c2ccccn2)nc1 [α,α'-Dipyridyl] | – | 75.7% | – |
| NO [NH2 OH] | – | 0% | – |
| [Cl][Hg][Cl] [HgCl2] | – | 79.0% | – |
| O=P(O)(O)OCC(O)CO (stereo not shown) [Glycerol-3-phosphoric acid] | 12 | – | – |
| O=C(CO)CO [Dihydroxyacetone] | 293 | – | Substrate specificity (in words) (glycerol oxidase II [1]): reacts specifically |
| CCCCO [n-Butyl alcohol] | 7 | – | – |
